Results on 1 compound are retold here after patent US11633392B2 (priority 2016, dated 2023).

Marks after values point to notes of the source that are not given here. Some results are limits rather than exact numbers.

One data set deals with T1, hERG potassium channel (Homo sapiens, UniProt Q12809).
T1 construct: host or cells: CHO cells
Kind of data set: hERG potassium channel inhibition test (automatic patch clamp). The data set is classed as cell-based. The settings on record: pH 7.4, hERG-expressing CHO cells, tail current, read-out: hERG channel inhibitory action. On the procedure:
hERG (Human Ether-A-Go-Go-Related Gene) Potassium Channel Inhibition Test
The test was performed with Port-a-Patch automatic patch clump apparatus (Nanion Technologies) using hERG channel-stably expressing CHO cells (purchased from Channelopathy Foundation). The membrane potential of the cells was maintained at −80 mV, then there were applied a depolarization pulse at +20 mV for 1.5 seconds, and a following test pulse at −50 mV for 1.5 seconds at a frequency of 1 time per 10 seconds, and the hERG current was confirmed as a tail current induced by the test pulse. The test compound was dissolved in an extracellular fluid (137 mM NaCl, 4 mM KCl, 1.8 mM CaCl2, 1 mM MgCl2, 10 mM D(+)-glucose, 10 mM HEPES, pH 7.4), and the solution was refluxed at room temperature for 5 minutes. The inhibition ratio was obtained from the ratio of the tail current value observed after the compound was applied based on the tail current value observed before the compound was applied, which was taken as 100%.

The next data set deals with T2, human opioid κ receptor (Homo sapiens, UniProt P41145).
T2 construct: host or cells: CHO cells
Kind of data set: Opioid receptor function test (Lance Ultra cAMP Kit), κ receptor. The data set is classed as cell-based. The settings on record: maximum reaction not reached; maximum concentration 10 μM; U-69593 = 100%. On the procedure:
(§1) Opioid Receptor Function Test
(§2) The functional activities of the compounds provided by the present invention on the μ, δ, and κ opioid receptors were investigated.
(§3) The test was performed by using Lance Ultra cAMP Kit (PerkinElmer) according to a method predetermined for the kit. In the evaluation of the agonistic activity, CHO cells expressing each of the human opioid receptors (δ, μ, and κ, accession numbers and catalog numbers are mentioned below) and 10 μM of each test compound were reacted for 30 minutes in an assay buffer (1× HBSS, […], pH 7.4, […] (isobutylmethylxanthine), 7.5% BSA) in the presence of forskolin. Subsequently, the cAMP detection reagent included in the kit was added, and 1 hour afterward, time-resolved fluorescence measurement was performed by using the EnVision plate reader (PerkinElmer). The test compounds and the control drugs (δ: SNC80, μ: DAMGO, κ: U-69593) were evaluated in a concentration range of 10^−12 to 10^−5 M, a dose-response curve of each test compound was obtained from the fluorescence values at 665 nm, and EC50 value and the Emax value were calculated. The Emax value was calculated as a ratio of the maximum reaction of the test compound to the maximum reaction of each control drug, which is taken as 100%.
(§4) • δ: Catalog No. CT4607, Accession No. NM_000911.2 • μ: Catalog No. CT4605, Accession No. NM_000914 • κ: Catalog No. CT4606, Accession No. NM_000912 (ChanTest Corporation)

The next data set deals with T3, human opioid μ receptor (Homo sapiens, UniProt P35372).
T3 construct: host or cells: CHO cells
Kind of data set: Opioid receptor function test (Lance Ultra cAMP Kit), μ receptor. The data set is classed as cell-based. Here is the method:
as §1, §2, §3, §4

For another data set, the system named is SD male rats. Kind of data set: Rat cerebral infarction-induced overactive bladder model (cystometry). The data set is classed as in vivo. The settings on record: for Pressure at the time of urination / Single urination amount / Static pressure / Urination interval: cumulative, Mean ± S.E. (n = 5). On the procedure: Evaluation Using Rat Cerebral Infarction-Induced Overactive Bladder Model
A transient middle cerebral artery occlusion model was prepared by using 8 weeks old SD male rats under isoflurane inhalation anesthesia. On the next day, the cervix was slightly cut open again under the isoflurane inhalation anesthesia, and a catheter for administration was fixed in the jugular vein, and led to the back. A cystometry operation was also performed, and the other end of a cannula inserted into the bladder was led to the back, and connected to a cannula swivel.
On the day 4 after the cerebral ischemia operation, cystometry was performed under no anesthesia and with no restraint. Intravesical pressure was measured for the stable period, then a medium was intravenously administered, and the value of the pressure was measured over about 30 minutes as a value before test substance administration. Then, the test substance was cumulatively and intravenously administered from the lowest dose at intervals of about 30 minutes, and the value was measured for about 30 minutes after each administration. For the rats determined to show pollakiuria (urination interval was 10 minutes or shorter) in the measurement before the administration, static intravesical pressure, pressure at the time of urination, urination interval, and single urination amount were measured at each time point.

T3 sequence (P35372 whole entry): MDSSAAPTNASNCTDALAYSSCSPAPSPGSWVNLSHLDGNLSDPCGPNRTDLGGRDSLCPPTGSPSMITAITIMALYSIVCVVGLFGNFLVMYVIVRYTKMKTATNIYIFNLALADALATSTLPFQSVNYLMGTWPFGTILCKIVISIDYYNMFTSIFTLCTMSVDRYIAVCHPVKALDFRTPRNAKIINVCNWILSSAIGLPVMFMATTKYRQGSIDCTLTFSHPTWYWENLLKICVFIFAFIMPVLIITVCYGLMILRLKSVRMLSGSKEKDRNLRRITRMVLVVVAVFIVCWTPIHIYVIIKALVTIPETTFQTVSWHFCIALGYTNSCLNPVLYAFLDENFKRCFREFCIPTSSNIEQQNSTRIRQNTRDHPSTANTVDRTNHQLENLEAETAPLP
T2 sequence (P41145 whole entry): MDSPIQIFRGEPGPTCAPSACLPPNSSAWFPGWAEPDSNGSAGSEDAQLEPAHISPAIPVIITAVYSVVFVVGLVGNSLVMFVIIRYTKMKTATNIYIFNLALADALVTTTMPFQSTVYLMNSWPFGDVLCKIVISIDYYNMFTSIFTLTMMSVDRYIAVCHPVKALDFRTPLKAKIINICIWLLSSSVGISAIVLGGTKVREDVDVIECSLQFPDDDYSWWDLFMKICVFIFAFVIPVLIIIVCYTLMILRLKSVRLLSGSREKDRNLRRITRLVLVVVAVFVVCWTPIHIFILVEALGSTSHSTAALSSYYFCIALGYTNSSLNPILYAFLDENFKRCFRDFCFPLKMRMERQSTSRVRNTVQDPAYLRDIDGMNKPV
T1 sequence (Q12809 whole entry): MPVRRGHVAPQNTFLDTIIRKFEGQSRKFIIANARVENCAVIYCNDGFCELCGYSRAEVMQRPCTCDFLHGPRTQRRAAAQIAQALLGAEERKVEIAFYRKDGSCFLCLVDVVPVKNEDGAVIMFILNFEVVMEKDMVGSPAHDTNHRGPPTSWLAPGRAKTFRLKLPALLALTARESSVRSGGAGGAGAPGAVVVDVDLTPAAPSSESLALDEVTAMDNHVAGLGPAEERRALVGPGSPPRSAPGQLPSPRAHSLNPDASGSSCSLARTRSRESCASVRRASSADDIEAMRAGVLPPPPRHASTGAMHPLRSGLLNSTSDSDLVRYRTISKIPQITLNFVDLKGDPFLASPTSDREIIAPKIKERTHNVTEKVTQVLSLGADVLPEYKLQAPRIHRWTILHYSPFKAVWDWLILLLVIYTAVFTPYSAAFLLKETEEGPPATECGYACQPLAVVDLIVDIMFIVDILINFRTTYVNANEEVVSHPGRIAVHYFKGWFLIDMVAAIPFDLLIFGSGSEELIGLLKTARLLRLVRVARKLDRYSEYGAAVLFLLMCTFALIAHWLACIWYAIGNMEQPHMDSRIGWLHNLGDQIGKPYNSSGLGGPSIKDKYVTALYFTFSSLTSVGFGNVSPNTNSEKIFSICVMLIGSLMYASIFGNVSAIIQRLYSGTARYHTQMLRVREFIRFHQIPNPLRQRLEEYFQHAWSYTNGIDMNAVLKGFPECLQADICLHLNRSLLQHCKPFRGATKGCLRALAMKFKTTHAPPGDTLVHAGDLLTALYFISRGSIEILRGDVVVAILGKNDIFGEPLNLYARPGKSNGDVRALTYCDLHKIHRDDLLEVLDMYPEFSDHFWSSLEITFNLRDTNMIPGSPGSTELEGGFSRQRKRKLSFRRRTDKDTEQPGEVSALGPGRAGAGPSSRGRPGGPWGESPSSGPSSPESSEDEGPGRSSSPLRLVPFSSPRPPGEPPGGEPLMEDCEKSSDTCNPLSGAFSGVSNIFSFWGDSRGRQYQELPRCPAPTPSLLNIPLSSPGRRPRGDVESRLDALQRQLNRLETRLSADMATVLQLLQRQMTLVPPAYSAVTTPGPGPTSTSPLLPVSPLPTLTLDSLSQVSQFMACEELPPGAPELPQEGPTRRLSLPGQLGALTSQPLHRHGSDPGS

On to `O=C(c1cccc(=O)[nH]1)N1C[C@H]2C[C@@]34CC[C@@H]1[C@@H]2[C@@]31CCN(CC2CC2)[C@@H]4Cc2ccc(O)cc21` [Example 7, 6-((1S,3aR,5aS,6R,11bR,11cS)-14-(cyclopropylmethyl)-10-hydroxy-2,3,3a,4,5,6,7,11c-octahydro-1H-6,11b-(epiminoethano)-1,5a-methanonaphtho[1,2-e]indole-3-carbonyl)pyridin-2(1H)-one], for which the inhibition at 5 min, 10 µM at hERG potassium channel is less than 50%. The “κ receptor reaction rate at the maximum concentration (reference value, marked *)” value on human opioid κ receptor is −0.9* %. The EC50 at human opioid μ receptor (CHO cells expressing human μ receptor, cAMP, in the presence of forskolin, read-out: μ receptor EC50 value) is more than 1 nM. Further, the Emax on human opioid μ receptor (ratio to maximum reaction of control drug DAMGO taken as 100%) turned out to be 10%. Moreover, in the data set with SD male rats (0.01 mg/kg intravenous), the “Pressure at the time of urination” value came out at 42.9 ± 10.7 mmHg, the Single urination amount was determined as 0.310 ± 0.068 g, the Static pressure is given as 9.5 ± 1.3 mmHg and the Urination interval is 450.7 ± 76.9 s. In addition, in the data set with SD male rats (0.1 mg/kg intravenous), the “Pressure at the time of urination” value came out at 42.8 ± 9.7 mmHg, the Single urination amount came to 0.403 ± 0.129 g, the Static pressure is 9.6 ± 1.1 mmHg and the Urination interval was determined as 547.4 ± 122.5 s. For the same compound, in the data set on SD male rats (0.01 and 0.1 mg/kg intravenous), the “effect on single urination amount (in words)” value is “dose-dependently increasing tendency” and the “effect on urination interval (in words)” value is recorded as “dose-dependently increasing tendency”. In the data set with SD male rats (all the doses), the “effect on pressure at the time of urination (in words)” value is given as “did not affect” and the “effect on static intravesical pressure (in words)” value is on record as “did not affect”.
